From paper PMC12095047, “Transport of phenoxyacetic acid herbicides by PIN-FORMED auxin transporters” (Nature Plants, 2025)
Several values for one entry are separate records, joined by “and”; a condition that tells them apart may be missing. Equal values may be shown once. Read-outs that look alike come from different tables or passages of the source.

Key:
Assay type in all cases: biochemical
PIN8 N117A = molecular target: T1, PIN8 N117A (Arabidopsis thaliana, UniProt Q9LFP6, N117A); test: SSM electrophysiology peak current, PIN8 N117A proteoliposomes; details: Substrate IAA, replicates
T1 construct: made in house
T1 sequence (Q9LFP6 whole entry N117A): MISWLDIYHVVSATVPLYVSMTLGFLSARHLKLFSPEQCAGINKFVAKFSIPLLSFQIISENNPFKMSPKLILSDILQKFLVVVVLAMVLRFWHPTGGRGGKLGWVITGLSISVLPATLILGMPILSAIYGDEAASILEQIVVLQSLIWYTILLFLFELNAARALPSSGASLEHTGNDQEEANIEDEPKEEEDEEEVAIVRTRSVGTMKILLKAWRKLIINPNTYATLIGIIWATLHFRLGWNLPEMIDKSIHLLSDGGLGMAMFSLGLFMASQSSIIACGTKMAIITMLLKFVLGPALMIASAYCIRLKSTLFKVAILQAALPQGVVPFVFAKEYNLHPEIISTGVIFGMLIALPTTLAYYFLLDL
Protocol: (§1) SSM, using a SURFE2R N1 from Nanion Technologies, was conducted as described. In brief, soy polar lipid mix (38% phosphatidyl choline, 30% phosphatidyl ethanolamine, 18% phosphatidyl inositol, 7% phosphatidic acid and 7% other soy lipids) and 1-palmitoyl-2-oleoyl-sn-glycero-3-phosphocholin were purchased from Avanti. Liposomes were prepared in Ringer solution without Ca^2+ (115 mM NaCl, 2.5 mM KCl, 1 mM NaHCO3, 10 mM HEPES pH7.4, 1 mM MgCl2) and homogenized using a Lipsofast (Avestin) with a […]. Triton X-100 was added to the liposomes to a final concentration of 1% (v/v). Protein was added to liposomes to a calculated lipid-to-protein ratio (LPR) of 10 unless stated otherwise. The detergent was removed using 400 mg ml^−1 Bio Beads (BioRad) overnight at 4 °C in a rotary shaker. Proteoliposomes were frozen in liquid nitrogen and kept at −80 °C until use. Proteoliposomes were diluted 1:5 in Ringer solution without Ca^2+, sonicated five times and then applied to the sensors by centrifugation (30 min, 3,000 g, 4 °C). Non-activating buffer was Ringer solution without Ca^2+ as described unless specified otherwise, and activating buffer contained the substrate of interest. In most instances we used a single-solution exchange experiment. In this case proteoliposomes, immobilized on the supported membrane, are kept in non-activating buffer as specified. At the beginning of the experiment the non-activating buffer is replaced with fresh identical non-activating buffer, and after 1 s, activating buffer (same buffer containing substrate) is added. After another second, the buffer is replaced with non-activating buffer again. Current response is recorded throughout the entire 3 s. For competition or inhibition, the respective compound was present in non-activating and activating solutions. Each experiment was performed on at least two individual sensors. On each sensor each measurement consists of three technical replicates where the mean is calculated. KD values were determined as described previously. Briefly, the binding current induced by 100 µM NPA was recorded in the presence of different concentrations of the substrate under investigation ranging between 0 µM and 1,000 µM present in the activating solution and the non-activating solution (Extended Data Fig. 5b). […] The maximum peak current was then plotted as a function of the concentration of the substrate under investigation and plotted against the degree of inhibition and fitted with a one-site binding model using GraphPad Prism V10.4.1 The half maximal concentration corresponds to the KD of the substrate under investigation.
(§2) The protocol for expression and purification of AtPIN8 protein (Uniprot: Q9LFP6) in lauryl maltose neopentyl glycol was described previously. All point mutants were generated using Q5 Site-Directed mutagenesis kit (New England Biolabs). The C-flat Holey Carbon grids (CF-1.2/1.3, Cu-300 mesh) were glow-discharged for 45 s at 15 mA in a GloQube Plus (Quorum). […] After 1 h of incubation on ice, the sample was centrifuged at 16,000 g for 15 min before blotting to remove precipitation. A drop of 4 µl of each sample was applied to the glow-discharged grids, blotted with a Vitrobot Mark IV (ThermoFisher Scientific) using the following settings (temperature 4 °C, 100% humidity, blot time of 4 s, blot force −1) and vitrified in liquid ethane.

PIN8 Y150A = molecular target: T2, PIN8 Y150A (Arabidopsis thaliana, UniProt Q9LFP6, Y150A); details: for Peak current: Y150A, individual sensors
T2 construct: made in house
T2 sequence (Q9LFP6 whole entry Y150A): as the sequence (Q9LFP6 whole entry N117A) above, with A117N, Y150A counted along it
Protocol: as §1, §2

PIN8 N223A = molecular target: T3, PIN8 N223A (Arabidopsis thaliana, UniProt Q9LFP6, N223A); details: PIN8 N223A, Michaelis–Menten fit
T3 construct: made in house
T3 sequence (Q9LFP6 whole entry N223A): as the sequence (Q9LFP6 whole entry N117A) above, with A117N, N223A counted along it
Protocol: as §1, §2

PIN8 I51Y = molecular target: T4, PIN8 I51Y (Arabidopsis thaliana, UniProt Q9LFP6, I51Y); details: Michaelis–Menten fit
T4 construct: made in house
T4 sequence (Q9LFP6 whole entry I51Y): as the sequence (Q9LFP6 whole entry N117A) above, with I51Y, A117N counted along it
Protocol: as §1, §2

PIN8 S55A/S146A = molecular target: T5, PIN8 S55A/S146A (Arabidopsis thaliana, UniProt Q9LFP6, S146A/S55A); details: Michaelis–Menten fit
T5 construct: made in house
T5 sequence (Q9LFP6 whole entry S55A/S146A): as the sequence (Q9LFP6 whole entry N117A) above, with S55A, A117N, S146A counted along it
Protocol: as §1, §2

PIN8 Y150F = molecular target: T6, PIN8 Y150F (Arabidopsis thaliana, UniProt Q9LFP6, Y150F)
T6 construct: made in house
T6 sequence (Q9LFP6 whole entry Y150F): as the sequence (Q9LFP6 whole entry N117A) above, with A117N, Y150F counted along it
Protocol: as §1, §2

PIN8 S266A = molecular target: T7, PIN8 S266A (Arabidopsis thaliana, UniProt Q9LFP6, S266A); details: for Peak current: S266A, individual sensors
T7 construct: made in house
T7 sequence (Q9LFP6 whole entry S266A): as the sequence (Q9LFP6 whole entry N117A) above, with A117N, S266A counted along it
Protocol: as §1, §2

PIN8 S55A = molecular target: T8, PIN8 S55A (Arabidopsis thaliana, UniProt Q9LFP6, S55A); details: for Peak current: S55A, individual sensors
T8 construct: made in house
T8 sequence (Q9LFP6 whole entry S55A): as the sequence (Q9LFP6 whole entry N117A) above, with S55A, A117N counted along it
Protocol: as §1, §2

PIN8 S146A = molecular target: T9, PIN8 S146A (Arabidopsis thaliana, UniProt Q9LFP6, S146A); details: for Peak current: individual sensors
T9 construct: made in house
T9 sequence (Q9LFP6 whole entry S146A): as the sequence (Q9LFP6 whole entry N117A) above, with A117N, S146A counted along it
Protocol: as §1, §2

[1] = molecular target: T10, wild-type PIN8 proteoliposomes (Arabidopsis thaliana, UniProt Q9LFP6); test: SSM electrophysiology, peak width (FWHM) of current response at LPR10 and LPR50; details: for Rel. FWHM (% of LPR10): replicates
T10 construct: made in house
T10 sequence (Q9LFP6 1-367): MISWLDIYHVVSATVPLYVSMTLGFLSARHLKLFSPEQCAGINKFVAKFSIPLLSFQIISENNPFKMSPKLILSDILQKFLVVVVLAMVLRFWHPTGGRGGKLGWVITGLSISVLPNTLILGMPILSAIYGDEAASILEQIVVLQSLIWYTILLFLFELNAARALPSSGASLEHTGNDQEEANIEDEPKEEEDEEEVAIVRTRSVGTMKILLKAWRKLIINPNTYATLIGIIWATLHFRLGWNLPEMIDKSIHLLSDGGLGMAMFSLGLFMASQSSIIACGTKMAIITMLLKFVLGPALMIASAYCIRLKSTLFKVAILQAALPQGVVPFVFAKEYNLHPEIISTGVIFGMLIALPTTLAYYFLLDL
Protocol: as §1

[2] = read-out: EC50 of peak current response

O=C(O)Cc1c[nH]c2ccccc12 [IAA, indole-3-acetic acid]
Relative Peak Current of WT (%) (PIN8 N117A; 100µM): 3.5397% and 5.375% and 9.48% and 13.4511% | Relative Peak Current of WT (%) (PIN8 N117A; 2mM): 11.8985% and 14.7068% and 17.3968% and 15.4928% | Imax (PIN8 Y150A; PIN8 Y150A, Michaelis–Menten fit): 4 ± 0.3 nA | EC50 (PIN8 Y150A; PIN8 Y150A, Michaelis–Menten fit, read-out: EC50 of peak current response): 1210 ± 298 µM | Peak current (PIN8 Y150A; 5 µM substrate): 0.07393 nA and 0.1605 nA and 0.184 nA | Peak current (PIN8 Y150A; 20 µM substrate): 0.162 nA and 0.2178 nA and 0.2518 nA | Peak current (PIN8 Y150A; 50 µM substrate): 0.2702 nA and 0.3405 nA and 0.3285 nA | Peak current (PIN8 Y150A; 100 µM substrate): 0.09437 nA and 0.3629 nA and 0.1017 nA | Peak current (PIN8 Y150A; 500 µM substrate): 0.8668 nA and 1.165 nA and 0.6916 nA | Peak current (PIN8 Y150A; 1000 µM substrate): 1.921 nA and 2.062 nA and 1.677 nA | Peak current (PIN8 Y150A; 2000 µM substrate): 2.244 nA and 2.472 nA and 1.95 nA | Imax (PIN8 N223A): 2 ± 0.8 nA | EC50 (PIN8 N223A; No transport = model could not be fit, read-out: EC50 of peak current response): 444 ± 205 µM | Imax (PIN8 I51Y): 2 ± 0.2 nA | EC50 (PIN8 I51Y; [2]): 547 ± 171 µM | Imax (PIN8 S55A/S146A): 7 ± 2 nA | EC50 (PIN8 S55A/S146A; [2]): 341 ± 128 µM | Imax (PIN8 Y150F; PIN8 Y150F, Michaelis–Menten fit): 6 ± 2 nA | EC50 (PIN8 Y150F; PIN8 Y150F, Michaelis–Menten fit, read-out: EC50 of peak current response): 452 ± 32 µM | fold-change difference to the respective EC50 of wildtype PIN8 (PIN8 Y150F; Y150F, direction shown by colour only): ~ 2 fold | Imax (PIN8 S266A; PIN8 S266A, Michaelis–Menten fit): 4 ± 0.6 nA | EC50 (PIN8 S266A; PIN8 S266A, Michaelis–Menten fit, read-out: EC50 of peak current response): 578 ± 183 µM | Peak current (PIN8 S266A; 5 µM substrate): 0.2201 nA and 0.07526 nA and 0.1062 nA | Peak current (PIN8 S266A; 20 µM substrate): 0.3015 nA and 0.4448 nA and 0.2134 nA | Peak current (PIN8 S266A; 50 µM substrate): 0.4871 nA and 0.8571 nA and 0.3384 nA | Imax (PIN8 S55A; PIN8 S55A, Michaelis–Menten fit): 6 ± 1 nA | EC50 (PIN8 S55A; PIN8 S55A, Michaelis–Menten fit, read-out: EC50 of peak current response): 213 ± 58 µM | Peak current (PIN8 S55A; 5 µM substrate): 0.3417 nA and 0.3232 nA and 0.2318 nA and 0.3509 nA | Peak current (PIN8 S55A; 20 µM substrate): 1.04 nA and 0.8246 nA and 0.4664 nA and 0.4596 nA | Peak current (PIN8 S55A; 50 µM substrate): 1.937 nA and 1.54 nA and 0.9207 nA and 0.8323 nA | Peak current (PIN8 S55A; 100 µM substrate): 2.888 nA and 2.325 nA and 1.514 nA and 1.385 nA | Peak current (PIN8 S55A; 500 µM substrate): 5.317 nA and 4.4508 nA and 3.048 nA and 3.044 nA | Peak current (PIN8 S55A; 1000 µM substrate): 6.258 nA and 5.302 nA and 3.739 nA and 3.804 nA | Peak current (PIN8 S55A; 2000 µM substrate): 7.104 nA and 6.138 nA and 4.476 nA and 4.5392 nA | Imax (PIN8 S146A; PIN8 S146A, Michaelis–Menten fit): 8 ± 2 nA | EC50 (PIN8 S146A; PIN8 S146A, Michaelis–Menten fit, read-out: EC50 of peak current response): 498 ± 191 µM | Peak current (PIN8 S146A; S146A, 5 µM substrate): 0.4304 nA and 0.01967 nA and 0.2252 nA | Peak current (PIN8 S146A; S146A, 20 µM substrate): 0.857 nA and 0.324 nA and 0.6461 nA | Peak current (PIN8 S146A; S146A, 50 µM substrate): 1.458 nA and 0.6503 nA and 1.2348 nA | Peak current (PIN8 S146A; S146A, 100 µM substrate): 2.021 nA and 0.7074 nA and 1.578 nA | Peak current (PIN8 S146A; S146A, 500 µM substrate): 4.698 nA and 2.244 nA and 4.077 nA | Peak current (PIN8 S146A; S146A, 1000 µM substrate): 6.329 nA and 3.684 nA and 6.024 nA | Peak current (PIN8 S146A; S146A, 2000 µM substrate): 7.444 nA and 4.338 nA and 6.988 nA | fold-change difference to the respective EC50 of wildtype PIN8 (PIN8 S146A; S146A, direction (higher or lower affinity) shown by colour only): ~ 2 fold | Rel. FWHM (% of LPR10) ([1]; LPR10): 1.043 % of LPR10 and 0.9783 % of LPR10 (2×) | peak width of SSM-based current response as a function of lipid-to-protein ratio (LPR) ([1]; LPR10 versus LPR50): vary with lipid-to-protein ratio (LPR) | Rel. FWHM (% of LPR10) ([1]; LPR50): 2.022 % of LPR10 (2×) and 1.957 % of LPR10
